Data on 2 molecules can be found in publication PMC3086806, “Mining a Cathepsin Inhibitor Library for New Antiparasitic Drug Leads” (PLoS Neglected Tropical Diseases, 2011).

The target of one assay is T1, cruzain (Trypanosoma cruzi, UniProt P25779).
T1 construct: made in house
Description: Cruzain protease inhibition assay (Z-Phe-Arg-AMC). The format is biochemical. Here is the method: (§1) Recombinant cruzain, rhodesain, TbCatB, falcipain-2 and falcipain-3 were expressed as described previously, [39], [40], [41], [42]. Inhibitor stock solutions were prepared in DMSO and screened at 0.1 µM for cruzain and rhodesain, 1 µM for TbCatB and 50 nM for falcipain-3 (0.5% DMSO in assay). […] Protease inhibition assays for cruzain and rhodesain were carried out in 96 well plate format as described previously. Cruzain (4 nM), rhodesain (4 nM) or TbCatB (258 nM) was incubated with test compound in 100 mM sodium acetate, pH 5.5, containing 5 mM DTT and 0.01% Triton X-100 (buffer A), for 5 min at room temperature (the higher concentration of TbCatB was required due to its lower intrinsic activity against the fluorogenic substrate). Then buffer A containing Z-Phe-Arg-AMC (Bachem) was added to enzyme-compound mixture to give 10 µM substrate in a final assay volume of 200 µL. The rate of free AMC release was measured at excitation and emission wavelengths of 355 and 460 nm, respectively, with a microtiter plate spectrofluorimeter (SpectraMax M5, Molecular Devices) for 3 min. Percentage inhibition of test compound was calculated relative to the DMSO control (0% inhibition control). IC50 values were determined with Prism 4 software (GraphPad, San Diego, CA) using sigmoidal dose-response variable slope model.

A further assay addresses T2, falcipain-3 (Plasmodium falciparum, UniProt Q8IIL0).
T2 construct: made in house
T2 sequence (Q8IIL0 243-492): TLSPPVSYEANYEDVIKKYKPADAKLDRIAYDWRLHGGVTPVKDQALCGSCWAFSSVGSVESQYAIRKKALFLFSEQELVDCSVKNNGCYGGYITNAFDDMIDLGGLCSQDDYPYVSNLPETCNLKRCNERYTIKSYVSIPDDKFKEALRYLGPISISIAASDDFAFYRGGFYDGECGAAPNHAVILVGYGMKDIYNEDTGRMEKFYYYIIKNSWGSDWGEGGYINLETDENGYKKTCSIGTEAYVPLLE
Description: Falcipain-3 protease inhibition assay (Z-Leu-Arg-AMC). The format is biochemical. To be noted: read-out: IC50 falcipain-3. Here is the method:
as §1
(§2) Protease inhibition assays for falcipain-2 and falcipain-3 were carried out in 96 well plate format as described previously, [43] with modification for end-point readout. Falcipain-2 (21 nM) or falcipain-3 (78 nM) was incubated with test compound for 10 min at room temperature in 200 mM sodium acetate, pH 6, 10 mM DTT and 3.6% glycerol and 0.01% Triton X-100 (buffer B). Then buffer B containing Z-Leu-Arg-AMC (Bachem) was added to the enzyme-compound mixture to give 25 µM substrate in a final assay volume of 200 µL. After 15 min, 50 µL of 5 M acetic acid was added to each well to stop the reaction. End-point fluorescence was read in a spectrofluorimeter as above. The 0% inhibition control wells contained DMSO while 100% inhibition control wells contained 50 µM E-64 (Sigma). Percentage inhibition of test compound was calculated relative to the controls and IC50 curve fitting was performed with Prism 4 software as above.

Assay [1] has as its system intracellular T. cruzi (CA-I/72) in BESM cells. Description: T. cruzi amastigote growth inhibition assay. To be noted: Trypanosoma cruzi; infected BESM cells, 72 hours. It is filed as cell-based. Here is the method:
The growth inhibition assay for the intracellular T. cruzi was conducted in 96-well plate format as described previously. Briefly, bovine embryo skeletal muscle (BESM) cells (2×10^3/well), seeded overnight, were infected with CA-I/72 T. cruzi trypomastigotes (2×10^3/well). Sixteen hours post-infection, test compounds (serial dilution concentrations starting from 20 µM) were added and assay plates were incubated for an additional 72 hours at 37°C with 5% CO2. Cells were then washed once in PBS, fixed with 4% paraformaldehyde and stained with DNA fluorescent dye DAPI (4′ 6-diamidino-2-phenylindole). The assay plates were then imaged in the IN Cell Analyzer 2000 (GE Healthcare) with the excitation and emission filters set of 350 nm and 460 nm, respectively, to detect DAPI signals. The feature extraction module in IN Cell Developer Toolbox 1.7 software was used to count host nuclei and parasite kinetoplasts by size difference.

A further assay addresses human cathepsin B. Further details: method as in data provided by Celera Genomics. To be noted: historical data; ref data provided by Celera Genomics; read-out: Ki catB; cited from earlier work.
In a further assay the target is T3, rhodesain (Trypanosoma brucei rhodesiense, UniProt Q95PM0).
T3 construct: made in house
Description: Rhodesain protease inhibition assay (Z-Phe-Arg-AMC). The settings on record: for Fold more potent inhibition of rhodesain than TbCatB: rhodesain vs TbCatB IC50. The format is biochemical. As to the method:
as §1

Assay [2] deals with T. brucei brucei clone 427-221a bloodstream forms. Description: T. brucei brucei growth inhibition assay. It is filed as cell-based. To be noted: Trypanosoma brucei; 40 hours. As to the method:
The growth inhibition assay for T. brucei brucei was conducted as described previously. Bloodstream forms of the monomorphic T. brucei brucei clone 427-221a were grown in complete HMI-9 medium containing 10% FBS, 10% Serum Plus medium (Sigma Inc. St. Louis Mo. USA), 50 U/mL penicillin and 50 µg/mL streptomycin (Invitrogen) at 37°C under a humidified atmosphere and 5% CO2. […] 5 µL of each dilution was added to 95 µL of diluted parasites (1×10^4 cells per well) in sterile Greiner 96-well flat white opaque culture plates such that the final DMSO concentration was 0.5%. The 0% inhibition control wells contained 0.5% DMSO while 100% inhibition control wells contained 50 µM thimerosal (Sigma). After compound addition, plates were incubated for 40 hours at 37°C. At the end of the incubation period, 50 µL of CellTiter-Glo™ reagent (Promega Inc., Madison, WI, USA) was added to each well and plates were placed on an orbital shaker at room temperature for 2 min to induce lysis. After an additional 10 min incubation without shaking to stabilize the signal, the ATP-bioluminescence of each well was determined using an Analyst HT plate reader (Molecular Devices, Sunnyvale, CA, USA). Raw values were converted to log10 and percentage inhibition calculated relative to the controls. IC50 curve fittings were performed with Prism 4 software as above.

A further assay deals with T4, falcipain-2 (Plasmodium falciparum, UniProt Q8I6U4).
T4 construct: made in house
T4 sequence (Q8I6U4 244-484): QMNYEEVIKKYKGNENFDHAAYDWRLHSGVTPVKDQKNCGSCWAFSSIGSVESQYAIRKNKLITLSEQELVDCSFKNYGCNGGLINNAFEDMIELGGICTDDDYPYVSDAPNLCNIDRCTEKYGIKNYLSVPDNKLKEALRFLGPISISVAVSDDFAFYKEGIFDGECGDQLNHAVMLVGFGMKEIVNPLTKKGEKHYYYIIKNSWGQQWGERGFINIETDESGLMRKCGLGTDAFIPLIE
Description: Falcipain-2 protease inhibition assay (Z-Leu-Arg-AMC). The format is biochemical. Here is the method: as §1, §2

T3 sequence (Q95PM0 entry or part of it): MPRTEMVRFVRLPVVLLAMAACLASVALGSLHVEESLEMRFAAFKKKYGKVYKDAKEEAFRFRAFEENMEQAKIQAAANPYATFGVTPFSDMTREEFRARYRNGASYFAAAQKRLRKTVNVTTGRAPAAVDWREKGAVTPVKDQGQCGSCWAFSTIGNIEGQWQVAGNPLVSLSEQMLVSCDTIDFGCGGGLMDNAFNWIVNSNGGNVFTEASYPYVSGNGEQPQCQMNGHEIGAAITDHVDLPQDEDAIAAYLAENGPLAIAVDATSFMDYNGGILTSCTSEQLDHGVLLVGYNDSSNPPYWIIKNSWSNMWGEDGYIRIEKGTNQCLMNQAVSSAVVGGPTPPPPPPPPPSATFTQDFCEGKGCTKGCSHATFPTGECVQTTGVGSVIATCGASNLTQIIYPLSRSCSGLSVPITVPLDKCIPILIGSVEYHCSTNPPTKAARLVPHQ
T1 sequence (P25779 123-467): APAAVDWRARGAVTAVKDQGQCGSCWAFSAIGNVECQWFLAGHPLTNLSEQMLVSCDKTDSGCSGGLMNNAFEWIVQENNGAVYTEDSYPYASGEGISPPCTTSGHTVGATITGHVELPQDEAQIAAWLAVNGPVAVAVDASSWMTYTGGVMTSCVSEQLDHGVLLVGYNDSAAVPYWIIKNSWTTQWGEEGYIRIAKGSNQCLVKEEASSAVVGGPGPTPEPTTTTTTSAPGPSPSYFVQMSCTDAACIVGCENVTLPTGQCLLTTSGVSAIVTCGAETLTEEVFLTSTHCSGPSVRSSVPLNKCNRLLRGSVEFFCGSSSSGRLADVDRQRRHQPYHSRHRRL

Broadly, the IC50 is the concentration that inhibits the measured activity by half. What is called GI50 is the concentration giving 50% growth inhibition. A low value points to greater sensitivity of the cells. In general, Ki refers to the equilibrium dissociation constant of an inhibitor or competing ligand from its target. With `CCCCC(NC(=O)C(CC(C)C)NC(=O)N1CCOCC1)C(=O)c1nc2ccccc2o1` (stereo not shown) [Compound 19a], the 50% inhibitory concentration (IC50) at cruzain turned out to be 1 nM; at falcipain-3, 8.3 nM; against rhodesain, 1 nM; against falcipain-2 it was 2.1 nM. The GI50 in assay [1] is 20000 nM; in assay [2], more than 25000 nM. Moreover, on human cathepsin B, the Ki is 125 nM. The “Fold more potent inhibition of rhodesain than TbCatB” value on rhodesain is recorded as approximately 1000 fold.
For the molecule `CCCCC(NC(=O)C(Cc1ccccc1)NC(=O)N1CCOCC1)C(=O)c1nc2ccccc2o1` (stereo not shown) [Compound 19b], the half-maximal inhibitory concentration (IC50) against cruzain stood at 4 nM; on falcipain-3 it was 4.9 nM; against rhodesain, 1 nM; at falcipain-2, 4.4 nM. For the same molecule, the concentration for 50% growth inhibition (GI50) in assay [1] was 10900 nM; in assay [2] it was more than 25000 nM. Moreover, the inhibition constant Ki on human cathepsin B was 42 nM. Besides, the “Fold more potent inhibition of rhodesain than TbCatB” value at rhodesain is approximately 1000 fold.
